According to patent US8450374B2, “Pan-antagonists for the androgen receptor and androgen receptor mutants associated with anti-androgen withdrawal” (priority 2009, dated 2013):
Positions count from the first letter of the chain named.

How the values were obtained:
[1] = In vivo tolerability of PAN52; design: species or system Male C57Bl/6 mice; settings: 25 mg/kg/day IP in 9:1 Cremophor, 3 day or 5 day course
GFP-AR = target: T1, GFP-AR (Homo sapiens, UniProt P10275); experiment: Nuclear localization of GFP-AR in CV-1 cells; format: cell-based; settings: 2 h after ligand addition; DHT 10 μM, other ligands 100 μM
T1 construct: expressed in transfected cells; host or cells: CV-1 monkey kidney cells
T1 sequence (P10275 1-920): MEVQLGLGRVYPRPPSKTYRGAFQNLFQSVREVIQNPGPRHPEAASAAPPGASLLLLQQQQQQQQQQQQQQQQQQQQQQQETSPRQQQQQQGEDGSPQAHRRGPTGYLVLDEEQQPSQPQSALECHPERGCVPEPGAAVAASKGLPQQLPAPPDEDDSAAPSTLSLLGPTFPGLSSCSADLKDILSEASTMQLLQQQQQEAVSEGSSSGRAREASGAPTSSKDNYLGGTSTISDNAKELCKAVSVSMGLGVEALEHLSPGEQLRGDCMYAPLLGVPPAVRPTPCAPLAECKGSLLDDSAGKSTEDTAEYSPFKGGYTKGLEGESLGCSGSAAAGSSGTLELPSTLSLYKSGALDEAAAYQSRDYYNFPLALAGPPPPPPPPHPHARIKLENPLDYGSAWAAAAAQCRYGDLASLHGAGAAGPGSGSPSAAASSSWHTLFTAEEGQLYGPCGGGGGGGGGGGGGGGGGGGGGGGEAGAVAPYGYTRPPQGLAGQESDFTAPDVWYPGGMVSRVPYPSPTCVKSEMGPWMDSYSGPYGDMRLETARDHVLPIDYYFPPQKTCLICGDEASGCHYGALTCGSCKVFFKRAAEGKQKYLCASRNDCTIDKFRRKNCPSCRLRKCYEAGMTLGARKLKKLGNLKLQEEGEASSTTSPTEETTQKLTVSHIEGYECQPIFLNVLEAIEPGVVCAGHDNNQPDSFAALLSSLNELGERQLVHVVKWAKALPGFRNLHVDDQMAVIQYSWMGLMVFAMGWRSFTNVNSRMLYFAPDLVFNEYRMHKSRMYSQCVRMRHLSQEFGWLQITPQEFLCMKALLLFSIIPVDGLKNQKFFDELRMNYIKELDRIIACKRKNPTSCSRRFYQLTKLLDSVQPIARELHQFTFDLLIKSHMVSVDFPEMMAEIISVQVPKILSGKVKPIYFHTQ
Method: Nuclear localization of GFP-AR in CV-1 cells grown in 10% charcoal stripped CCS/DMEM.
CV-1 monkey kidney cells were seeded in a 12 well plate at a concentration of 50,000 cells per well. After 24 h, the cells were transfected with GFP-AR in a solution of Opti-MEM and Lipofectamine 2000, and incubated overnight. The cells were then imaged on a fluorescent microscope, followed by the addition of 6 respective ligands, and control (DMSO vehicle). […] The cells were incubated for two hours and again imaged. The cells were fixed, and stained (DAPI) to image the nucleus.

[2] = target: T2, AR protein levels in LNCaP cells (Homo sapiens, UniProt P10275, T878A); experiment: AR downregulation by western blot, LNCaP cells; format: cell-based; settings: LNCaP cells, 10, 50 or 100 μM, 24 h
T2 construct: endogenous in cells; host or cells: LNCaP
T2 sequence (P10275 1-920 T878A): T1 sequence (P10275 1-920) with T878A
Method: (§1) Compounds that down regulate the levels of AR in prostate cancer may be effective in androgen dependent cells and anti-androgen resistant cells that over express the androgen receptor. […] LNCaP or CRW22RV1 cells were treated with 10 μM, 50 μM or 100 μM compound for 24 h. Cells were harvested and lysed. Cell lysates were analyzed by SDS-PAGE followed by immunostaining with anti-AR and anti-lamin antibodies (see FIGS. 15 and 16).

[3] = system: AR protein levels in CRW22 cells; experiment: AR downregulation by western blot, CRW22RV1 cells; format: cell-based; settings: CRW22RV1 cells, 10, 50 or 100 μM, 24 h
Method: as §1

In the case of `CN(C)CCCOc1cccc(-c2ccccc2S(=O)(=O)CC(C)(O)C(=O)Nc2ccc(C#N)c(C(F)(F)F)c2)c1` (stereo not shown) [PAN52], the “Behavior in grooming or feeding” value [1] is reported as “no abnormal behavior in grooming or feeding”, the “Nuclear localization of GFP-AR fluorescence” value (GFP-AR) is reported as “little to no nuclear localization” and the “AR protein levels relative to bicalutamide, DHT or DMSO controls” value [2] is reported as “downregulation of AR protein levels”. The “AR protein levels relative to bicalutamide, DHT or DMSO controls” value [3] was “downregulation of AR protein levels”.
